Structures can show the parent of a compound that is named as a salt.
Key:
Hsp90 = target: T1, Hsp90 (Homo sapiens, UniProt P07900); test: Fluorescence polarization (FP) binding assay, displacement of GM-BODIPY; conditions: GM-BODIPY tracer, 125 nM Hsp90, 4 h at 4° C.; read-out: F.P. binding assay IC50
T1 construct: purchased Stressgen SPP-776
Description: Fluorescence Polarization (FP)
GM-BODIPY (PerkinElmer, CUSN60342000MG) was previously dissolved in DMSO to obtain 10 mM stock solutions and kept at −20° C. until use.
The compounds were previously dissolved in DMSO to obtain stock solutions and kept at −20° C. The day of experiment, the compounds were prepared by serial dilutions in HFB. Before each use, 0.1 mg/ml Bovine Gamma globulin and 2 mM DTT were freshly added.
The plate was mixed on a shaker at 4° C. for 4 hours, and the FP values in mP (millipolarization units) were recorded. […] Curve fitting was performed using Prism GraphPad software program (GraphPad software, Inc., San Diego, Calif.).
Curve fitting was performed using Prism GraphPad software program (GraphPad software, Inc., San Diego, Calif.).

[1] = test system: NCI-H460 non-small cell lung carcinoma cells; test: Cytotoxicity assay (sulphorodamine B test), NCI-H460; assay type: cell-based
Description: To evaluate the effect of the compounds on cells survival, the sulphorodamine B test was used. To test the effects of the compounds on cell growth, NCI-H460 non-small cell lung carcinoma cells were used. Tumour cells were grown in RPMI 1640 containing 10% fetal bovine serum (GIBCO).
(§1) Tumour cells were seeded in 96-well tissue culture plates at approximately 10% confluence and were allowed to attach and recover for at least 24 h. Varying concentrations of the drugs were then added to each well to calculate their IC50 value (the concentration which inhibits the 50% of cell survival). The plates were incubated at 37° C. for 72 h. At the end of the treatment, the plates were washed by removal of the supernatant and addition of phosphate buffered saline (PBS) 3 times. 200 μl PBS and 50 μl of cold 80% trichloroacetic acid (TCA) were added. The plates were incubated on ice for at least 1 h. TCA was removed, the plates were washed 3 times by immersion in distilled water and dried on paper and at 40° C. for 5 min. Then 200 μl of 0.4% sulphorodamine B in 1% acetic acid were added. The plates were incubated at RT for 30 min. Sulphorodamine B was removed, the plates were washed by immersion in 1% acetic acid for 3 times, then they were dried on paper and at 40° C. for 5 min. Then, 200 μl Tris 10 mM were added, the plates were kept under stirring for 20 min. The cell survival was determined as optical density by a Multiskan spectrofluorimeter at 540 nm. The amount of cells killed was calculated as the percentage decrease in sulphorodamine B binding compared with control cultures.
(§2) The IC50 values were calculated with the “ALLFIT” program.
(§3) The antiproliferative IC50 was evaluated as drug concentration required for 50% reduction of cell growth as compared with untreated controls after 72-h exposure to the drug. The IC50±SD values reported were calculated by ALLFIT program.

[2] = test system: human epithelial carcinoma cell line A431; test: Cytotoxicity assay (sulphorodamine B test), A431; assay type: cell-based
Description: as §1, §2
The antiproliferative activity of novel Hsp90 inhibitors was evaluated on NCI-H460 non-small cell lung carcinoma cells and on a human epithelial carcinoma cell line A431.
as §3

[3] = Homo sapiens, NCI-H460, 72-h exposure
[4] = Homo sapiens, A-431, 72-h exposure

Compound | IC50 (Hsp90) [nM] | IC50 ([1]; 72-h exposure) [nM] | IC50 ([2]; 72-h exposure) [nM] | IC50 [1, 3] [nM] | IC50 [2, 4] [nM]
5-(2,4-dihydroxy-5-isopropyl-phenyl)-4-(4-morpholin-4-yl-methyl-benzoyl amino)-isoxazole-3-carboxylic acid ethylamide hydrochloride [Example 18] | < 100 | < 100 | < 100 |  | 
CCNC(=O)c1noc(-c2cc(Cl)c(O)cc2O)c1NC(=O)c1sccc1C [Example 8, 5-(5-chloro-2,4-dihydroxy-phenyl)-4-[(3-methyl-thiophene-2-carbonyl)-amino]-isoxazole-3-carboxylic acid ethylamide] | < 100 |  |  | 100 to 1000 | < 100
CCNC(=O)c1noc(-c2cc(Cl)c(O)cc2O)c1NC(=O)CCN1CCOCC1 [Example 9, 5-(5-chloro-2,4-dihydroxy-phenyl)-4-(3-morpholin-4-yl-propionylamino)-isoxazole-3-carboxylic acid ethylamide] | 100 to 1000 |  |  | 100 to 1000 | 100 to 1000
CCNC(=O)c1noc(-c2cc(Cl)c(O)cc2O)c1NC(=O)c1ccc(Br)cc1 [Example 10, 4-(4-bromo-benzoylamino)-5-(5-chloro-2,4-dihydroxy-phenyl)-isoxazole-3-carboxylic acid ethylamide] | 100 to 1000 |  |  | 1000 to 10000 | 100 to 1000
CCNC(=O)c1noc(-c2cc(C(C)C)c(O)cc2O)c1NC(=O)c1ccc(OC)cc1 [Example 11, 5-(2,4-dihydroxy-5-isopropyl-phenyl)-4-(4-methoxy-benzoylamino)-isoxazole-3-carboxylic acid ethylamide] | 100 to 1000 |  |  | < 100 | 
CCNC(=O)c1noc(-c2cc(C(C)C)c(O)cc2O)c1NC(C)=O [Example 12, 4-acetylamino-5-(2,4-dihydroxy-5-isopropyl-phenyl)-isoxazole-3-carboxylic acid ethylamide] | < 100 |  |  | < 100 | 
CCNC(=O)c1noc(-c2cc(C(C)C)c(O)cc2O)c1NC(=O)C1CCC(C(C)(C)C)CC1 (stereo not drawn) [Example 24, 4-[(4-tert-butyl-cyclohexanecarbonyl)-amino]-5-(2,4-dihydroxy-5-isopropyl-phenyl)-isoxazole-3-carboxylic acid ethylamide] | < 100 |  |  | 100 to 1000 | 
CCNC(=O)c1noc(-c2cc(C(C)C)c(O)cc2O)c1NC(=O)[C@H]1CC[C@H](N)CC1 [Example 25, 4-[(trans-4-amino-cyclohexanecarbonyl)-amino]-5-(2,4-dihydroxy-5-isopropyl-phenyl)-isoxazole-3-carboxylic acid ethylamide hydrochloride] | < 100 |  |  | 1000 to 10000 | 
CCNC(=O)c1noc(-c2cc(C(C)C)c(O)cc2O)c1NC(=O)[C@H]1CC[C@H](CN)CC1 [Example 26, 4-[(trans-4-aminomethyl-cyclohexanecarbonyl)-amino]-5-(2,4-dihydroxy-5-isopropyl-phenyl)-isoxazole-3-carboxylic acid ethylamide hydrochloride] | < 100 |  |  | 1000 to 10000 | 
COc1ccc(C(=O)Nc2c(C(=O)N3CC(F)(F)C3)noc2-c2cc(Cl)c(O)cc2O)cc1 [Example 34, 4-(4-methoxybenzamido)-5-(5-chloro-2,4-dihydroxyphenyl)-isoxazol-3-yl-(3,3-difluoroazetidin-lyl)-methanone] |  |  |  | > 10000 | > 10000

Now from value to compound, other results behind:

IC50 (Hsp90) [nM] | Compound | IC50 ([1]; 72-h exposure) [nM] | IC50 ([2]; 72-h exposure) [nM] | IC50 [1, 3] [nM] | IC50 [2, 4] [nM]
< 100 | CCNC(=O)c1noc(-c2cc(Cl)c(O)cc2O)c1NC(C)=O [Example 1, 4-acetylamino-5-(5-chloro-2,4-dihydroxy-phenyl)-isoxazole-3-carboxylic acid ethylamide] |  |  | 1000 to 10000 | 1000 to 10000
100 to 1000 | CCNC(=O)c1noc(-c2cc(Cl)c(O)cc2O)c1NC(=O)c1ccc(OC)cc1 [Example 2, 5-(5-chloro-2,4-dihydroxy-phenyl)-4-(4-methoxy-benzoylamino)-isoxazole-3-carboxylic acid ethylamide] |  |  | 1000 to 10000 | 100 to 1000
100 to 1000 | CCNC(=O)c1noc(-c2cc(Cl)c(O)cc2O)c1NC(=O)c1ccc(OC)c(OC)c1 [Example 3, 5-(5-chloro-2,4-dihydroxy-phenyl)-4-(3,4-dimethoxy-benzoylamino)-isoxazole-3-carboxylic acid ethylamide] |  |  | 1000 to 10000 | 100 to 1000
100 to 1000 | CCNC(=O)c1noc(-c2cc(Cl)c(O)cc2O)c1NC(=O)c1cc(OC)c(OC)c(OC)c1 [Example 4, 5-(5-chloro-2,4-dihydroxy-phenyl)-4-(3,4,5-trimethoxy-benzoylamino)-isoxazole-3-carboxylic acid ethylamide] |  |  | 100 to 1000 | 100 to 1000
< 100 | CCNC(=O)c1noc(-c2cc(Cl)c(O)cc2O)c1NC(=O)C(C)(C)C [Example 5, 5-(5-chloro-2,4-dihydroxy-phenyl)-4-(2,2-dimethyl-propionylamino)-isoxazole-3-carboxylic acid ethylamide] |  |  | 100 to 1000 | < 100
100 to 1000 | CCNC(=O)c1noc(-c2cc(Cl)c(O)cc2O)c1NC(=O)C12CC3CC(CC(C3)C1)C2 [Example 6, 4-[(adamantane-1-carbonyl)-amino]-5-(5-chloro-2,4-dihydroxy-phenyl)-isoxazole-3-carboxylic acid ethylamide] |  |  | 100 to 1000 | 100 to 1000
100 to 1000 | C=CC(=O)Nc1c(C(=O)NCC)noc1-c1cc(Cl)c(O)cc1O [Example 7, 4-acryloylamino-5-(5-chloro-2,4-dihydroxy-phenyl)-isoxazole-3-carboxylic acid ethylamide] |  |  | 1000 to 10000 | 100 to 1000
< 100 | CCNC(=O)c1noc(-c2cc(C(C)C)c(O)cc2O)c1NC(=O)C(C)(C)C [Example 13, 5-(2,4-dihydroxy-5-isopropyl-phenyl)-4-(2,2-dimethyl-propionylamino)-isoxazole-3-carboxylic acid ethylamide] |  |  | < 100 | 
< 100 | CCNC(=O)c1noc(-c2cc(C(C)C)c(O)cc2O)c1NC(=O)c1sccc1C [Example 14, 5-(2,4-dihydroxy-5-isopropyl-phenyl)-4-[(3-methyl-thiophene-2-carbonyl)-amino]-isoxazole-3-carboxylic acid ethylamide] |  |  | < 100 | < 100
100 to 1000 | CCNC(=O)c1noc(-c2cc(C(C)C)c(O)cc2O)c1NC(=O)CCN1CCOCC1 [Example 15, 5-(2,4-dihydroxy-5-isopropyl-phenyl)-4-(3-morpholin-4-yl-propionylamino)-isoxazole-3-carboxylic acid ethylamide] |  |  | 100 to 1000 | 
100 to 1000 | CCNC(=O)c1noc(-c2cc(C(C)C)c(O)cc2O)c1NC(=O)CCN1CCN(C)CC1 [Example 16, 4-(3-(4-methylpiperazin-1-yl)propanamido)-N-ethyl-5-(2,4-dihydroxy-5-isopropylphenyl)-isoxazole-3-carboxamide] |  |  | 1000 to 10000 | 100 to 1000
< 100 | CCNC(=O)c1noc(-c2cc(C(C)C)c(O)cc2O)c1NC(=O)c1ccc2cc[nH]c2c1 [Example 17, 1H-indole-6-carboxylic acid [5-(2,4-dihydroxy-5-isopropyl-phenyl)-3-ethylcarbamoyl-isoxazol-4-yl]-amide] |  |  | 100 to 1000 | 100 to 1000
100 to 1000 | CCNC(=O)c1noc(-c2cc(C(C)C)c(O)cc2O)c1NC(=O)C1CCCCC1 [Example 19, 4-(cyclohexanecarbonyl-amino)-5-(2,4-dihydroxy-5-isopropyl-phenyl)-isoxazole-3-carboxylic acid ethylamide] |  |  | < 100 | < 100
< 100 | CCNC(=O)c1noc(-c2cc(C(C)C)c(O)cc2O)c1NC(=O)C1CCC(OC)CC1 (stereo not drawn) [Example 23, 5-(2,4-dihydroxy-5-isopropyl-phenyl)-4-[(4-methoxy-cyclohexanecarbonyl)-amino]-isoxazole-3-carboxylic acid ethylamide] |  |  | < 100 | 

From patent publication US8383616B2, “Aryl isoxazole compounds with antitumoural activities” (Sigma-Tau Industrie Farmaceutiche Riunite SpA, priority 2008, dated 2013)
